According to US10935552B2, “Aie luminogens for visualization and treatment of cancer” (THE HONG KONG UNIVERSITY OF SCIENCE AND TECHNOLOGY, priority 2015, dated 2021):
Counter-ions that a name gives are not always drawn. Values belong to the compound of their own block, whether it stands above or below them.

What was measured:
[1] = test system: HeLa cells; assay: Cancer cell imaging for HeLa cells by IDA-TPE; format: cell-based, human; conditions: 10 μM, 30 mins
Description: Cell Culture. HeLa cells were cultured in MEM containing 10% FBS and 1% antibiotics (100 units/mL penicillin and 100 µg/mL streptomycin) in a 5% CO2 humidity incubator at 37° C.
The HeLa cells were grown overnight on a 35 mm petri dish with a cover slip. […] The cells were imaged under a fluorescent microscope (BX41 Microscope) using same excitation and emission filters: excitation filter=330-385 nm, dichroic mirror=420 nm, and emission filter=400 nm long pass.

[2] = test system: Lung cancer cell A549; assay: Cancer cell imaging for lung cancer cell A549 by TTE; format: cell-based; conditions: A549, 10 μM TTE, 15 mins
Description: (§1) Cell Culture. HeLa cells were cultured in MEM containing 10% FBS and 1% antibiotics (100 units/mL penicillin and 100 µg/mL streptomycin) in a 5% CO2 humidity incubator at 37° C. Cell Imaging. Lung cancer cell A549 were cultured in DMEM containing 10% FBS and antibiotics (100 units/mL penicillin and 100 µg/mL streptomycin) in a 5% CO2 humidity incubator at 37° C. Two different kind of cells were grown overnight on a 35 mm petri dish with a cover slip. The live cells were incubated with 10 μM of TTE for 15/30 mins, TFE for 30′ and fl-TFE for 30′ and 5 h (the last two have been tested only in HeLa cells). In a typical experiment, 2 μL of a 10 mM stock solution of TTE in DMSO were diluted to 1 mL with cell culture medium, followed by further dilution to desired concentration. The cells were imaged under a fluorescent microscope (BX41 Microscope) using same excitation and emission filters: excitation filter=330-385 nm, dichroic mirror=420 nm, and emission filter=400 nm long pass.
The A549 cells were grown overnight on a 35 mm petri dish with a cover slip. The live cells were incubated with 10 μM of TTE for 30 mins. The A549 cells were incubated with 10 μM TTE and 1 μg/mL for 15 mins.

[3] = test system: HeLa cells; assay: Cancer cell imaging for HeLa cells (TTE, TFE, fl-TFE); format: cell-based, human
Description: as §1
The HeLa cells were grown overnight on a 35 mm petri dish with a cover slip. The live cells were incubated with 10 μM of TTE for 30 mins, which are shown in FIG. 17A-B. The HeLa cells were incubated with 50 μM oleic acid for 6 hrs and then were co-stained by 10 μM TTE and 1 μg/mL for 15 mins.

[4] = test system: lysosome; assay: Lysosome imaging in HeLa cells, co-staining with LTR; format: cell-based, human; conditions: HeLa
Description: Then, AIE-LysoY was applied to lysosome imaging and its lysosome-targeting performance was assessed by fluorescence microscope. HeLa cells were stained with 10 μM of AIE-LysoY for 10 min, followed by washing away the abundant molecules of AIE-LysoY and incubation with 50 nM of LTR for 30 min. […] The fluorescence of AIE-LysoY overlaps perfectly with that of LTR, indicating the lysosome-targeting of AIE-LysoY.
Quantitative analysis of the degree of overlapping of these two fluorescence signals by Pearson's coefficient (Rr), which depicts the degree of linear dependence between two variables, gives an overlapping coefficient of 0.90. The high Rr value proves that AIE-LysoY is a lysosome-selective probe. […] Changing the staining time from 10 min to 60 min, the specificity to lysosome is retained, as well as the emission contrast.
To design the lysosome-specific bioprobe, a molecular engineering approach was employed. The precursor of AIE-LysoY, FAS-Br, and two morpholine-functionalized AIEgens, TPE-2Mor and Nred-mor were prepared and applied to cell imaging. The molecular structures of TPE-2mor and Nred-mor are shown below: […]

[5] = MTT cell viability assay, HeLa cells; format: cell-based, human; conditions: human, HeLa cells, 15 μM, MTT
Description: Hela cells were incubated with different concentrations of Naph-IQ in culture medium for 24 hours.
Before employing AIE-LysoY as a fluorescent visualizer of lysosome, a 3-(4,5-dimethyl-2-thiazolyl)-2,5-diphenyltetrazolium bromide (MTT) cell proliferation assay was first conducted to evaluate its cytotoxicity. […] The good biocompatibility of AIE-LysoY enables its application as a fluorescent tracer to follow the autophagic process of lysosome.

[6] = test system: HeLa cells; assay: Photostability by continuous confocal scanning of stained HeLa cells; format: cell-based, human
Source text: Compared with LTR, the working concentration of AIE-LysoY is much higher. LTR is not more sensitive than AIE-LysoY. As mentioned previously, LTR can only be used at low concentrations to avoid the ACQ effect. At such a low working concentration, the fluorescent probes molecularly disperse in the organelle and can be easily photooxidized by continuous excitation light, resulting in the low photostability of these probes. In order to evaluate the photostability of AIE-LysoY, a confocal microscope (Zeiss laser scanning confocal microscope LSM7 DUO) was applied to continuously scan cells stained by AIE-LysoY. The photostability of LTR was also measured for comparison. The power of excitation light (405 nm for AIE-LysoY and 561 nm for LTR) were unified by using a power meter. […] In contrast, the fluorescence intensity from LTR dropped to lower than 50% of its initial value after only 25 scans (FIG. 28, hollow circle line). The slight fluctuation of fluorescence signal can be ascribed to the dynamic movement of lysosome in living cells. The excellent photostability of AIE-LysoY may stem from its nanoparticles nature in lysosome imaging, which can protect the chromophore inside the particles from being photooxidzied. In this way, the fluorescence of […] can pertain after a long-time irradiation. […]

[7] = cited from earlier work
[8] = test system: ER independent breast cancer cells (MDA-MB-231 cells); assay: MTT cytotoxicity of TPE-TMX, MDA-MB-231 cells; format: cell-based; conditions: MDA-MB-231, up to 10 μM
Description: (§2) For the rational molecular design of TPE-TMX, it is extremely critical that it can restore its therapeutic ability as TMX after the modification. To investigate its therapeutic performance, the cytotoxicity of TPE-TMX to a variety of cell lines was evaluated using a MTT assay (FIG. 33). […] Therefore, TPE-TMX may form a complex with receptor that can manifest selective accumulation in MCF-7 cells and lead to cell death.

[9] = test system: MCF-7 cells; assay: Photo-bleaching resistance by continuous scanning of stained MCF-7 cells; format: cell-based; conditions: MCF-7, 2 μM 30 min, 50 scans, total irradiation 3 min, 0.1 mW
Description: In order to determine the working mechanism of TPE-TMX to MCF-7 cells, probes with long-term tracking are highly pursued. To compare the photo-bleaching resistance between TPE-TMX and LTR, continuous scanning of the stained MCF-7 cells by UV irradiation was carried out and the PL intensity at each scan was recorded. These two sets of MCF-7 cells were first incubated in a medium for 24 hrs and then stained with TPE-TMX and LTR at 2 μM for 30 min, respectively. The excitation power from 405 nm and 561 nm channels of the microscope was unified as 0.1 mW. The initial fluorescence intensity for the dyes was normalized and the percentage of intensity loss was calculated.

[10] = test system: different cell lines; assay: Fluorescence microscopy of different cell lines treated with TPE-TMX; format: cell-based
Source text: (§3) To examine this hypothesis, fluorescence microscopy of different cell lines treated with TPE-TMX was undertaken. […] Lysosome is an acidic enzyme enriched organelle responsible for digesting intracellular biomolecules, while TPE-TMX with a basic amino group is more favored to target the lysosomes in cells. Once the molecules are accumulated on the surface of lysosome, their intermolecular motions are restricted, which activates the AIE process and thus lights up the organelle.

[11] = test system: a variety of cell lines; assay: MTT cytotoxicity of TPE-TMX, other cell lines; format: cell-based; conditions: up to 10 μM
Description: as §2

[12] = test system: MCF-7 cells; assay: Fluorescence microscopy and long-term tracing of MCF-7 cells treated with TPE-TMX; format: cell-based; conditions: for Fluorescence of stained cells with increasing number of passages: long-term tracing
Source text: as §3
The whole cells exclude nuclei are highly emissive after the treatment of TPE-TMX for 192 hrs, which is proposed as autophagy. This mechanism is thought to be a degradation system that is mediated by a unique organelle called the autophagosome and then fuses with lysosome to form an autolysosome. Once the autolysosomes are formed, the cells become dysfunctional and eventually cause cell death. […] This is the first time that autophagy can be fluorescently monitored using a theranostic agent for breast cancer cells.

[13] = test system: ER+ breast cancer cells (MCF-7 cells); assay: MTT cytotoxicity of TPE-TMX, MCF-7 cells; format: cell-based
Description: as §2

[14] = test system: MCF-7 cells; assay: Lysosomal imaging in MCF-7 cells, co-staining with LTR; format: cell-based
Description: The behavior of TPE-TMX in cellular settings was studied as compared to TMX. MCF-7 cells were incubated with 2 μM TPE-TMX and […] TMX for 24 hrs, respectively. The cells were then washed and directly observed under the microscope without fixation. […] However, the exact intracellular location of TMX cannot be confirmed by fluorescent microscopy because its emission wavelength is not in the range of the visible spectrum. Therefore, a series of commercial fluorescent markers were used to image drug delivery of TMX. […] On the other hand, TPE-TMX, without any aid of fluorescent dye, can be successfully monitored in the cells thanks to its intense blue emission. The controls display no emission under UV irradiation.
To further confirm the subcellular distribution of TPE-TMX, LTR was also used to co-stain MCF-7 cells with TPE-TMX. […] As expected, TPE-TMX is a specific fluorescent dye to visualize lysosomal organelle structures as well as monitor the drug release.

[15] = test system: HeLa cells; assay: Autophagy induction by rapamycin in AIE-LysoY-stained HeLa cells; format: cell-based, human; conditions: HeLa stained with 10 μM AIE-LysoY, prolonged rapamycin treatment

Structure (SMILES): O=C(O)CN(CC(=O)O)Cc1ccc(C(=C(c2ccccc2)c2ccccc2)c2ccccc2)cc1 [IDA-TPE, iminodiacetic acid tetraphenylethene]
Cell uptake [1]: can go inside the cancer cell
Fluorescence staining of cells [1]: can target HeLa cells

Structure (SMILES): c1csc(C(=C(c2cccs2)c2cccs2)c2cccs2)c1 [TTE, TetraThienylEthene]
Organelle selectivity (overlap with BODIPY) [2]: can selectively target lipid droplets
Ability to enter cells as bioprobe ([3]; 10 μM, TTE in HeLa and A549, TFE and fl-TFE only in HeLa): the only one able to enter inside the cells
Organelle selectivity (overlap with BODIPY) ([3]; HeLa, 50 μM oleic acid 6 hrs, 10 μM TTE, 15 mins): can selectively target lipid droplets

Fluorescence signal after continuous scanning ([6]; 405 nm, total irradiation time ~6 min): almost remain unchanged
Structure (SMILES): Oc1cc(OCCCCCCN2CCOCC2)ccc1/C=N/N=C1c2ccccc2-c2ccccc21 [AIE-LysoY, (E)-2-(((9H-fluoren-9-ylidene)hydrazono)methyl)-5-((6-morpholinohexyl)oxy) phenol]
Lysosome targeting ([4]; 10 μM 10 min, then 50 nM LTR 30 min): selectively accumulates in the dot-shaped lysosomes
Pearson's coefficient (Rr) of overlap with LTR ([4]; 10 μM AIE-LysoY, 50 nM LTR): 0.90
viability at 24 h, 15 µM [5]: > 80%

Structure (SMILES): O=C(O)C(F)(F)F [TFA, trifluoroacetic acid]
pKa [7]: about −0.3

Structure (SMILES): CN(C)CCOc1ccc(C(=C(c2ccccc2)c2ccccc2)c2ccccc2)cc1 [TPE-TMX]
Cell viability by MTT [8]: not dramatically altered
PL signal loss [9]: no significant PL loss
Subcellular localisation ([10]; all tested cell lines): localized on lysosomes in all tested cell lines
Morphological effect ([10]; other cell lines): no obvious morphological change
Cell viability by MTT [11]: not dramatically altered
Morphological effect ([12]; MCF-7): induces the formation of vacuole, lysosomal swelling and cell death
Effect on cells in continuous monitoring ([12]; MCF-7, 2 μM): induce vacuoles, lysosome swelling, and loss of the cell population
Fluorescence intensity in cells ([12]; MCF-7 versus other cell lines): more prominent in MCF-7 cells compared to the others
Fluorescence of stained cells with increasing number of passages [12]: increases with increasing number of passages
Cytotoxicity (therapeutic response) by MTT [13]: has only the therapeutic response to ER+ breast cancer cells (MCF-7 cells)
Subcellular distribution ([14]; MCF-7, 2 μM 30 min, then LTR 15 min): selectively stains lysosomes
Pearson correlation coefficient of co-localization with LTR (r) ([14]; MCF-7, 2 μM TPE-TMX): 0.96

Structure (SMILES): CO[C@H]1C[C@@H]2CC[C@@H](C)[C@@](O)(O2)C(=O)C(=O)N2CCCC[C@H]2C(=O)O[C@H]([C@H](C)C[C@@H]2CC[C@@H](O)[C@H](OC)C2)CC(=O)[C@H](C)/C=C(\C)[C@@H](O)[C@@H](OC)C(=O)[C@H](C)C[C@H](C)/C=C/C=C/C=C/1C [rapamycin]
Lysosome number (yellow spots) [15]: increased

PL signal loss [9]: more than 55%
Fluorescence intensity relative to initial value ([6]; 561 nm, after 25 scans): lower than 50%
Structure (SMILES): CN(C)CCNC(=O)CCc1ccc2n1[B-](F)(F)[N+]1=C(c3ccc[nH]3)C=CC1=C2 [LTR, reference compound]
Fluorescence of stained cells with increasing number of passages [12]: dramatically weakened
